# Values of other authors in US4096336A, “5,6-Benzo analogues or prostaglandin E” (Miles Laboratories, Inc., priority 1977, dated 1978).
# Read-outs that look alike come from different tables or passages of the source.
# Tests used:
# growth hormone = conditions: rats
# gastric secretion [1] = conditions: dogs
# gastric secretion [2] = conditions: man
# [3] = test system: motor pathways in the central nervous system
# blood platelets = conditions: in vitro
# tracheal smooth muscle = conditions: in vitro preparations
# adrenal glands = conditions: hypophysectimized rats
# thyroid activity = conditions: mice
# [4] = test system: ovarian progesterone secretion; conditions: sheep
# [5] = test system: smooth muscle of the vas deferens; conditions: mammalian male reproductive system
# [6] = test system: adrenergic nervie endings; conditions: guinea pig
# [7] = test system: female reproductive system
# luteolytic factors = conditions: variety of mammals
Compound,gastric secretion (gastric secretion [1]),transmission in motor pathways [3],effect on tracheal smooth muscle (tracheal smooth muscle),steriodogenesis in the adrenal glands (adrenal glands),thyroid activity (thyroid activity),ovarian progesterone secretion [4],release of growth hormone (growth hormone),transmitter release from adrenergic nerve endings [6],other results
CCCCC[C@H](O)/C=C/[C@H]1C=CC(=O)[C@@H]1CCCCCCC(=O)O [PGA1],inhibit gastric secretion,,,,,,,,synthesis of growth hormone (growth hormone): increased synthesis of that hormone; gastric secretion (gastric secretion [2]): exhibits similar activity in man
"CCCCC[C@H](O)/C=C/[C@H]1[C@H](O)CC(=O)[C@@H]1CCCCCCC(=O)O [PGE1, prostaglandin E1]",inhibit gastric secretion,retards,relax,stimulate steriodogenesis in the adrenal glands,increase thyroid activity,inhibit ovarian progesterone secretion,increase release of growth hormone,inhibit transmitter release,thrombogenesis (blood platelets): inhibits thrombogenesis in vitro; effect on smooth muscle of the vas deferens [5]: contracts the smooth muscle of the vas deferens
CCCCC[C@H](O)/C=C/[C@H]1[C@H](O)CC(=O)[C@@H]1C/C=C\CCCC(=O)O [PGE2],inhibit gastric secretion,,relax,stimulate steriodogenesis in the adrenal glands,increase thyroid activity,,increase release of growth hormone,inhibit transmitter release,oxytocic effects ([7]; inducing labor): exerts potent oxytocic effects in inducing labor
CCCCC[C@H](O)/C=C/[C@@H]1[C@@H](CCCCCCC(=O)O)[C@@H](O)C[C@H]1O [PGF1α],,,,stimulate steriodogenesis in the adrenal glands,increase thyroid activity,inhibit ovarian progesterone secretion,,,luteolytic action (luteolytic factors): act as luteolytic factors
CCCCC[C@H](O)/C=C/[C@@H]1[C@@H](CCCCCCC(=O)O)[C@H](O)C[C@H]1O [PGF1β],,,,,increase thyroid activity,,,,
CCCCC[C@H](O)/C=C/[C@@H]1[C@@H](C/C=C\CCCC(=O)O)[C@@H](O)C[C@H]1O [PGF2α],,facilitates transmission in motor pathways in the central nervous system,contracts the smooth muscle,,,,,,induction of spontaneous abortions ([7]; early pregnancy): induces spontaneous abortions in early pregnancy; effect on fertility / gestation ([7]; female reproductive system): has contragestational effects
